Drawing on ChEMBL document CHEMBL1136636, “Carbonic anhydrase inhibitors: inhibition of the tumor-associated isozyme IX with aromatic and heterocyclic sulfonamides” (Bioorg Med Chem Lett, 2003), this text covers Ki for 16 molecules.

Broadly, the Ki is a measure of affinity in units of concentration, obtained from inhibition or displacement. Lower therefore signals tighter binding.

One experiment has as its target Carbonic anhydrase 9 (Homo sapiens, UniProt Q16790).
The target in the next experiment is T1, Carbonic anhydrase 4 (Bos taurus, UniProt Q95323).
T1 sequence (Q95323 whole entry): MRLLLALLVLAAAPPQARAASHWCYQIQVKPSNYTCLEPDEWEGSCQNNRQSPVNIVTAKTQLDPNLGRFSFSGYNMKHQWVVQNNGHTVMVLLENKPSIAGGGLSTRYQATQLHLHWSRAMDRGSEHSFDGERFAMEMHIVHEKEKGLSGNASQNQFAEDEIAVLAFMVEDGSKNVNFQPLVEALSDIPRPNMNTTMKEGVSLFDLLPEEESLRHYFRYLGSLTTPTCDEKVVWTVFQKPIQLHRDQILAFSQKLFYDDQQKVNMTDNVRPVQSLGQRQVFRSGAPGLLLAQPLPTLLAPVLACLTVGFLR

For a further experiment, the target named is Carbonic anhydrase 1 (Homo sapiens, UniProt P00915).
Chain of Carbonic anhydrase 1 (P00915 whole entry): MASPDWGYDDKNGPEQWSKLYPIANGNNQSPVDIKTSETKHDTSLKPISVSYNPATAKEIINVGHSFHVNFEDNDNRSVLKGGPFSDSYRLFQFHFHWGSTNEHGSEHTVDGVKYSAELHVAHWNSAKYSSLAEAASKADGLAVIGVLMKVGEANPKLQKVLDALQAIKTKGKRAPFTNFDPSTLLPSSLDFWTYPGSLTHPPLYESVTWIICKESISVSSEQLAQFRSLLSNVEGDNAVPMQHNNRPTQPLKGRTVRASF

The molecule `NS(=O)(=O)c1ccc(CO)cc1` returned a Ki on Carbonic anhydrase 9 of 21 nM.
As to `Nc1ccc(S(=O)(=O)NCCc2ccc(S(N)(=O)=O)cc2)cc1`, the Ki at Carbonic anhydrase 9 stood at 24 nM; at Carbonic anhydrase 4, 72 nM.
For the molecule `NS(=O)(=O)c1cccc2ccccc12`, the inhibition constant Ki at Carbonic anhydrase 9 was 30 nM; at Carbonic anhydrase 1 it was 23000 nM; at Carbonic anhydrase 4, 438 nM.
Consider `Nc1cc(C(F)(F)F)c(S(N)(=O)=O)cc1S(N)(=O)=O` [2,4-DISULFAMYLTRIFLUOROMETHYLANILINE], for which, on Carbonic anhydrase 4, the inhibition constant Ki worked out at 154 nM.
Take `NS(=O)(=O)c1ccc(CCO)cc1`: the inhibition constant Ki on Carbonic anhydrase 9 amounted to 22 nM.
Take `NS(=O)(=O)c1cccc2cccnc12`: the Ki at Carbonic anhydrase 9 stood at 32 nM; on Carbonic anhydrase 4 it was 415 nM.
In the case of `Cn1nc(S(N)(=O)=O)sc1=N`, affinity on Carbonic anhydrase 9 was put at a Ki of 30 nM.
Regarding `Nc1nccc(Nc2ccc(S(N)(=O)=O)cc2)n1`, affinity at Carbonic anhydrase 9 was put at a Ki of 16 nM.
For `Nc1ccc(S(N)(=O)=O)cc1I`, the Ki at Carbonic anhydrase 9 came to 285 nM.
As for `Nc1ccccc1S(N)(=O)=O`, the affinity at Carbonic anhydrase 9 corresponds to a Ki of 33 nM.
Regarding `NS(=O)(=O)c1ccc(C(=O)O)cc1` [CARZENIDE], the values for the inhibition constant Ki at Carbonic anhydrase 9 and at Carbonic anhydrase 4 were 26 nM and 86 nM, respectively.
Regarding `Nc1ccc(S(=O)(=O)NCc2ccc(S(N)(=O)=O)cc2)cc1`, the Ki at Carbonic anhydrase 4 amounted to 72 nM.
With `Nc1ccc(S(=O)(=O)Nc2ccccc2S(N)(=O)=O)cc1`, the inhibition constant Ki stood at 185 nM at Carbonic anhydrase 1 and 144 nM on Carbonic anhydrase 4.
Consider `Nc1ccc(S(N)(=O)=O)cc1F`, for which affinity on Carbonic anhydrase 9 was put at a Ki of 245 nM.
The molecule `Nc1ccc(S(N)(=O)=O)cc1Cl` returned an inhibition constant (Ki) on Carbonic anhydrase 9 of 264 nM.
`Nc1ccc(S(=O)(=O)Nc2ccc(S(N)(=O)=O)cc2)cc1`: the Ki at Carbonic anhydrase 9 came to 34 nM; at Carbonic anhydrase 4, 129 nM.
